# Data as given in US20130072430A1, “METHODS FOR TREATMENT OR PROPHYLAXIS OF KIDNEY OR LIVER DYSFUNCTION” (NPS PHARMACEUTICALS, INC., priority 2010, published 2013).
# Test system: Human patients with short bowel syndrome
# Test: Example 1: liver diagnostic biomarkers (total bilirubin, ALT, AST, ALP) in short bowel syndrome patients, every four weeks for 24 weeks
# Format: in vivo
# Set-up: AST (SGOT) Change from Baseline, Median / ALT (SGPT), Median / TOTAL BILIRUBIN, Median / TOTAL BILIRUBIN Change from Baseline, Median / ALT (SGPT) Change from Baseline, Median / AST (SGOT), Median: unit not given here
# Description: Human patients with short bowel syndrome were divided into three groups: a control group (16 total individuals) to receive placebo, an experimental group (35 total individuals) to receive teduglutide at 0.05 mg/kg/day throughout the study, and an experimental group (32 total individuals) to receive teduglutide at 0.1 mg/kg/day throughout the study. Patients were treated by subcutaneous injection of placebo or the appropriate dose of teduglutide. As individuals with short bowel syndrome are likely to experience associated liver and kidney disease, known biomarkers of liver and kidney function were monitored every four weeks, for 24 weeks. The liver biomarkers tested included total bilirubin, ALT and AST and ALP. The kidney biomarkers tested included urea nitrogen, creatinine and GFR. Before administration of placebo or teduglutide, diagnostic biomarker levels were tested to establish a baseline for each individual.
# To visualize the effect of GLP-2 on the levels of the diagnostic biomarkers, the average change from baseline was calculated for the placebo and teduglutide treated groups for each visit after a baseline was established. The average change from baseline of each group is depicted in FIGS. […]. The numerical figures for each diaanostic biomarker at each time point are depicted in Table 1.
# The efficacy of teduglutide in treating liver dysfunction was further tested by sorting the data into two groups: individuals with abnormal baseline values of liver diagnostic biomarkers; and individuals with normal baseline values of liver diagnostic biomarkers. The mean diagnostic biomarker change from baseline for these two groups is shown for ALT (FIGS. 5 and 6) and AST (FIGS. 7 and 8). […] These changes were significant when compared to baseline levels for the group, and when compared to placebo (see FIGS. 5 and 7).
# The raw data for this sorting is reproduced in Table 2 below.
structure (smiles),measurement,setting,value
CC[C@H](C)[C@H](NC(=O)[C@H](Cc1ccccc1)NC(=O)[C@H](CC(=O)O)NC(=O)[C@H](CCCNC(=N)N)NC(=O)[C@H](C)NC(=O)[C@H](C)NC(=O)[C@H](CC(C)C)NC(=O)[C@H](CC(N)=O)NC(=O)[C@H](CC(=O)O)NC(=O)[C@H](CC(C)C)NC(=O)[C@@H](NC(=O)[C@@H](NC(=O)[C@H](CC(N)=O)NC(=O)[C@H](CCSC)NC(=O)[C@H](CCC(=O)O)NC(=O)[C@H](CC(=O)O)NC(=O)[C@H](CO)NC(=O)[C@H](Cc1ccccc1)NC(=O)[C@H](CO)NC(=O)CNC(=O)[C@H](CC(=O)O)NC(=O)CNC(=O)[C@@H](N)Cc1c[nH]cn1)[C@@H](C)O)[C@@H](C)CC)C(=O)N[C@@H](CC(N)=O)C(=O)N[C@@H](Cc1c[nH]c2ccccc12)C(=O)N[C@@H](CC(C)C)C(=O)N[C@H](C(=O)N[C@@H](CCC(N)=O)C(=O)N[C@H](C(=O)N[C@@H](CCCCN)C(=O)N[C@H](C(=O)N[C@H](C(=O)N[C@@H](CC(=O)O)C(=O)O)[C@@H](C)O)[C@@H](C)CC)[C@@H](C)O)[C@@H](C)CC [teduglutide],"ALT (SGPT) Change from Baseline, Median","0.05 mg/kg/day, DW24",−5.0
same,"ALT (SGPT), Mean (SD)","0.05 mg/kg/day, DW24",31.7 (26.63)
same,"ALT (SGPT), Median","0.05 mg/kg/day, DW24",20.0
same,"AST (SGOT) Change from Baseline, Mean (SD)","0.05 mg/kg/day, DW24",−6.8 (14.29)
same,"AST (SGOT) Change from Baseline, Median","0.05 mg/kg/day, DW24",−4.5
same,"AST (SGOT), Mean (SD)","0.05 mg/kg/day, DW24",27.7 (10.23)
same,"AST (SGOT), Median","0.05 mg/kg/day, DW24",25.0
same,"TOTAL BILIRUBIN Change from Baseline, Mean (SD)","0.05 mg/kg/day, DW24",−0.5 (7.11)
same,"TOTAL BILIRUBIN Change from Baseline, Median","0.05 mg/kg/day, DW24",0.0
same,"TOTAL BILIRUBIN, Mean (SD)","0.05 mg/kg/day, DW24",10.0 (6.28)
same,"TOTAL BILIRUBIN, Median","0.05 mg/kg/day, DW24",8.0
same,"ALKALINE PHOSPHATASE Change from Baseline, Mean (SD)","0.10 mg/kg/day, DW4",−11.3 (32.19)
same,"ALKALINE PHOSPHATASE Change from Baseline, Median","0.10 mg/kg/day, DW4",−10.5
same,"ALKALINE PHOSPHATASE, Mean (SD)","0.10 mg/kg/day, DW4",147.5 (74.98)
same,"ALKALINE PHOSPHATASE, Median","0.10 mg/kg/day, DW4",124.0
same,"ALT (SGPT) Change from Baseline, Mean (SD)","0.10 mg/kg/day, DW4",−11.6 (22.98)
same,"ALT (SGPT) Change from Baseline, Median","0.10 mg/kg/day, DW4",−6.5
same,"ALT (SGPT), Mean (SD)","0.10 mg/kg/day, DW4",38.6 (23.30)
same,"ALT (SGPT), Median","0.10 mg/kg/day, DW4",30.0
same,"AST (SGOT) Change from Baseline, Mean (SD)","0.10 mg/kg/day, DW4",−7.3 (15.21)
same,"AST (SGOT) Change from Baseline, Median","0.10 mg/kg/day, DW4",−5.0
same,"AST (SGOT), Mean (SD)","0.10 mg/kg/day, DW4",33.5 (17.00)
same,"AST (SGOT), Median","0.10 mg/kg/day, DW4",28.0
same,"TOTAL BILIRUBIN Change from Baseline, Mean (SD)","0.10 mg/kg/day, DW4",−4.0 (17.41)
same,"TOTAL BILIRUBIN Change from Baseline, Median","0.10 mg/kg/day, DW4",−1.0
same,"TOTAL BILIRUBIN, Mean (SD)","0.10 mg/kg/day, DW4",9.0 (5.65)
same,"TOTAL BILIRUBIN, Median","0.10 mg/kg/day, DW4",7.0
same,"ALKALINE PHOSPHATASE Change from Baseline, Mean (SD)","0.10 mg/kg/day, DW8",−21.2 (41.41)
same,"ALKALINE PHOSPHATASE Change from Baseline, Median","0.10 mg/kg/day, DW8",−20.0
same,"ALKALINE PHOSPHATASE, Mean (SD)","0.10 mg/kg/day, DW8",139.2 (75.84)
same,"ALKALINE PHOSPHATASE, Median","0.10 mg/kg/day, DW8",114.0
same,"ALT (SGPT) Change from Baseline, Mean (SD)","0.10 mg/kg/day, DW8",−15.7 (26.87)
same,"ALT (SGPT) Change from Baseline, Median","0.10 mg/kg/day, DW8",−8.0
same,"ALT (SGPT), Mean (SD)","0.10 mg/kg/day, DW8",34.1 (19.74)
same,"ALT (SGPT), Median","0.10 mg/kg/day, DW8",28.5
same,"AST (SGOT) Change from Baseline, Mean (SD)","0.10 mg/kg/day, DW8",−10.3 (16.56)
same,"AST (SGOT) Change from Baseline, Median","0.10 mg/kg/day, DW8",−5.0
same,"AST (SGOT), Mean (SD)","0.10 mg/kg/day, DW8",29.3 (12.52)
same,"AST (SGOT), Median","0.10 mg/kg/day, DW8",28.0
same,"TOTAL BILIRUBIN Change from Baseline, Mean (SD)","0.10 mg/kg/day, DW8",−3.8 (13.91)
same,"TOTAL BILIRUBIN Change from Baseline, Median","0.10 mg/kg/day, DW8",−1.0
same,"TOTAL BILIRUBIN, Mean (SD)","0.10 mg/kg/day, DW8",9.4 (9.80)
same,"TOTAL BILIRUBIN, Median","0.10 mg/kg/day, DW8",7.0
same,"ALKALINE PHOSPHATASE Change from Baseline, Mean (SD)","0.10 mg/kg/day, DW12",−13.1 (55.43)
same,"ALKALINE PHOSPHATASE Change from Baseline, Median","0.10 mg/kg/day, DW12",−16.5
same,"ALKALINE PHOSPHATASE, Mean (SD)","0.10 mg/kg/day, DW12",145.9 (83.34)
same,"ALKALINE PHOSPHATASE, Median","0.10 mg/kg/day, DW12",115.0
same,"ALT (SGPT) Change from Baseline, Mean (SD)","0.10 mg/kg/day, DW12",−10.6 (30.82)
same,"ALT (SGPT) Change from Baseline, Median","0.10 mg/kg/day, DW12",−11.0
same,"ALT (SGPT), Mean (SD)","0.10 mg/kg/day, DW12",40.4 (22.11)
same,"ALT (SGPT), Median","0.10 mg/kg/day, DW12",35.0
same,"AST (SGOT) Change from Baseline, Mean (SD)","0.10 mg/kg/day, DW12",−3.3 (21.39)
same,"AST (SGOT) Change from Baseline, Median","0.10 mg/kg/day, DW12",−3.5
same,"AST (SGOT), Mean (SD)","0.10 mg/kg/day, DW12",36.4 (20.41)
same,"AST (SGOT), Median","0.10 mg/kg/day, DW12",31.5
same,"TOTAL BILIRUBIN Change from Baseline, Mean (SD)","0.10 mg/kg/day, DW12",−2.9 (12.93)
same,"TOTAL BILIRUBIN Change from Baseline, Median","0.10 mg/kg/day, DW12",0.0
same,"TOTAL BILIRUBIN, Mean (SD)","0.10 mg/kg/day, DW12",10.3 (11.39)
same,"TOTAL BILIRUBIN, Median","0.10 mg/kg/day, DW12",7.0
same,"ALKALINE PHOSPHATASE Change from Baseline, Mean (SD)","0.10 mg/kg/day, DW16",−21.3 (59.79)
same,"ALKALINE PHOSPHATASE Change from Baseline, Median","0.10 mg/kg/day, DW16",−20.5
same,"ALKALINE PHOSPHATASE, Mean (SD)","0.10 mg/kg/day, DW16",137.7 (81.33)
same,"ALKALINE PHOSPHATASE, Median","0.10 mg/kg/day, DW16",108.5
same,"ALT (SGPT) Change from Baseline, Mean (SD)","0.10 mg/kg/day, DW16",−10.0 (35.59)
same,"ALT (SGPT) Change from Baseline, Median","0.10 mg/kg/day, DW16",−10.0
same,"ALT (SGPT), Mean (SD)","0.10 mg/kg/day, DW16",39.7 (27.97)
same,"ALT (SGPT), Median","0.10 mg/kg/day, DW16",30.0
same,"AST (SGOT) Change from Baseline, Mean (SD)","0.10 mg/kg/day, DW16",−6.6 (22.80)
same,"AST (SGOT) Change from Baseline, Median","0.10 mg/kg/day, DW16",−4.0
same,"AST (SGOT), Mean (SD)","0.10 mg/kg/day, DW16",33.0 (16.71)
same,"AST (SGOT), Median","0.10 mg/kg/day, DW16",30.0
same,"TOTAL BILIRUBIN Change from Baseline, Mean (SD)","0.10 mg/kg/day, DW16",−3.6 (14.89)
same,"TOTAL BILIRUBIN Change from Baseline, Median","0.10 mg/kg/day, DW16",−0.5
same,"TOTAL BILIRUBIN, Mean (SD)","0.10 mg/kg/day, DW16",9.8 (9.14)
same,"TOTAL BILIRUBIN, Median","0.10 mg/kg/day, DW16",7.5
same,"ALKALINE PHOSPHATASE Change from Baseline, Mean (SD)","0.10 mg/kg/day, DW20",−18.5 (63.67)
same,"ALKALINE PHOSPHATASE Change from Baseline, Median","0.10 mg/kg/day, DW20",−23.0
same,"ALKALINE PHOSPHATASE, Mean (SD)","0.10 mg/kg/day, DW20",137.1 (82.59)
same,"ALKALINE PHOSPHATASE, Median","0.10 mg/kg/day, DW20",107.0
same,"ALT (SGPT) Change from Baseline, Mean (SD)","0.10 mg/kg/day, DW20",−8.2 (37.70)
same,"ALT (SGPT) Change from Baseline, Median","0.10 mg/kg/day, DW20",−9.0
same,"ALT (SGPT), Mean (SD)","0.10 mg/kg/day, DW20",41.3 (29.36)
same,"ALT (SGPT), Median","0.10 mg/kg/day, DW20",29.0
same,"AST (SGOT) Change from Baseline, Mean (SD)","0.10 mg/kg/day, DW20",−4.9 (24.96)
same,"AST (SGOT) Change from Baseline, Median","0.10 mg/kg/day, DW20",−2.5
same,"AST (SGOT), Mean (SD)","0.10 mg/kg/day, DW20",34.9 (19.82)
